The text below walks through data of patent US12208110B2 (priority 2020, dated 2025).

Common to all, as to assay type: cell-based
Data set [1] in a line: MT4 cytotoxicity analysis (CellTiter-Glo). The conditions noted are these: human, MT4 CC50 (nM). As for the experimental part: Example 79: MT4 Cytotoxicity Analysis
3-fold serially diluted compound in DMSO, ranging from 2.5 uM to 10 mM, were added by acoustic transfer (Echo) in quadruplicate into black 384-well plates at 200 nl/well. After compound addition, 40 ul MT-4 cells at 80,000/ml were added to each well using a MicroFlo liquid dispenser (BioTek, Winooski, VT) and the cells were cultured for five days at 37° C. Following the incubation, cell viability was determined by adding 35 μL of CellTiter-Glo viability reagent and mixed thoroughly using ViaFlo 384 well workstation. The mixture was incubated for at least 10 minutes at 25° C., and the luminescence signal was quantified on an EnVision plate reader.

A further data set concerns SARS-CoV-2. Briefly: microbe, parasite or virus in culture. The settings on record: Severe acute respiratory syndrome coronavirus 2, 48 h.
The test system of data set [2] is RSV-Fluc (Recombinant Respiratory Syncytial virus strain A2 containing the firefly luciferase reporter). Kind of data set: microbe, parasite or virus in culture. The conditions noted are these: human respiratory syncytial virus, NHBE, 72 h, read-out: RSV-Fluc EC50 (nM, NHBE).

In data set [1], `CCCCCCCCCCCCCCCCCCOC[C@H](COP(=O)(O)OC[C@H]1O[C@@](C#N)(c2ccc3c(N)ncnn23)[C@H](O)[C@@H]1O)N1Cc2ccccc2C1` [Example 1, ((2R,3S,4R,5R)-5-(4-aminopyrrolo[2,1-f][1,2,4]triazin-7-yl)-5-cyano-3,4-dihydroxytetrahydrofuran-2-yl)methyl ((R)-2-(isoindolin-2-yl)-3-(octadecyloxy)propyl) hydrogen phosphate] returned a CC50 at 5 days of 20000 nM. Also, the concentration for a half-maximal effect (EC50) came out at 3.2 µM in the data set with SARS-CoV-2 and 570 nM in data set [2].
In the case of `CCCCCCCCCCCCCCCCCCOC[C@H](COP(=O)(O)OC[C@H]1O[C@@](C#N)(c2ccc3c(N)ncnn23)[C@H](O)[C@@H]1O)N(C)Cc1ccccc1` [Example 2, ((2R,3S,4R,5R)-5-(4-aminopyrrolo[2,1-f][1,2,4]triazin-7-yl)-5-cyano-3,4-dihydroxytetrahydrofuran-2-yl)methyl ((R)-2-(benzyl(methyl)amino)-3-(octadecyloxy)propyl) hydrogen phosphate], the half-maximal cytotoxic concentration (CC50) at 5 days in data set [1] was determined as 25000 nM. The figures for the half-maximal effective concentration (EC50) (with SARS-CoV-2; in data set [2]) were 10 µM and 5000 nM, respectively.
The compound `CCCCCCCCCCCCCCCCCCOC[C@H](COP(=O)(O)OC[C@H]1O[C@@](C#N)(c2ccc3c(N)ncnn23)[C@H](O)[C@@H]1O)N(C)C(=O)c1ccc(F)c(Cl)c1` [Example 4, ((2R,3S,4R,5R)-5-(4-aminopyrrolo[2,1-f][1,2,4]triazin-7-yl)-5-cyano-3,4-dihydroxytetrahydrofuran-2-yl)methyl ((R)-2-(3-chloro-4-fluoro-N-methylbenzamido)-3-(octadecyloxy)propyl) hydrogen phosphate] had a CC50 at 5 days in data set [1] of 13000 nM. In addition, the half-maximal effective concentration (EC50) was 9.4 µM in the data set on SARS-CoV-2 and 540 nM in data set [2].
For `CCCCCCCCCCCCCCCCCCO[C@@H](C)[C@H](COP(=O)(O)OC[C@H]1O[C@@](C#N)(c2ccc3c(N)ncnn23)[C@H](O)[C@@H]1O)OCc1ccccc1` [Example 5, ((2R,3S,4R,5R)-5-(4-aminopyrrolo[2,1-f][1,2,4]triazin-7-yl)-5-cyano-3,4-dihydroxytetrahydrofuran-2-yl)methyl ((2S,3S)-2-(benzyloxy)-3-(octadecyloxy)butyl) hydrogen phosphate] the same measures were 3400 nM, 2.5 µM and 50 nM.
For `CCCCCCCCCCCCCCCCCCOC[C@H](COP(=O)(O)OC[C@H]1O[C@@](C#N)(c2ccc3c(N)ncnn23)[C@H](O)[C@@H]1O)SCc1ccccc1` [Example 7, ((2R,3S,4R,5R)-5-(4-aminopyrrolo[2,1-f][1,2,4]triazin-7-yl)-5-cyano-3,4-dihydroxytetrahydrofuran-2-yl)methyl ((R)-2-(benzylthio)-3-(octadecyloxy)propyl) hydrogen phosphate] the same measures were 39000 nM, 10 µM and 360 nM.
For `CCCCCCCCCCCCCCCCCCO[C@H](C)[C@H](COP(=O)(O)OC[C@H]1O[C@@](C#N)(c2ccc3c(N)ncnn23)[C@H](O)[C@@H]1O)OCc1ccccc1` [Example 8, ((2R,3S,4R,5R)-5-(4-aminopyrrolo[2,1-f][1,2,4]triazin-7-yl)-5-cyano-3,4-dihydroxytetrahydrofuran-2-yl)methyl ((2S,3R)-2-(benzyloxy)-3-(octadecyloxy)butyl) hydrogen phosphate] the same measures were 1800 nM, 2.9 µM and 160 nM.
Compound `CCCCCCCCCCCCCCCCCCOC[C@H](COP(=O)(O)OC[C@H]1O[C@@](C#N)(c2ccc3c(N)ncnn23)[C@H](O)[C@@H]1O)N1Cc2cc(Cl)c(Cl)cc2C1` [Example 9, ((2R,3S,4R,5R)-5-(4-aminopyrrolo[2,1-f][1,2,4]triazin-7-yl)-5-cyano-3,4-dihydroxytetrahydrofuran-2-yl)methyl ((R)-2-(5,6-dichloroisoindolin-2-yl)-3-(octadecyloxy)propyl) hydrogen phosphate] yielded a CC50 at 5 days in data set [1] of 20000 nM. Further, the EC50 in the data set on SARS-CoV-2 turned out to be 9 µM; in data set [2], 490 nM.
Take `CCCCCCCCCCCCCCCCCCOC[C@H](COP(=O)(O)OC[C@H]1O[C@@](C#N)(c2ccc3c(N)ncnn23)[C@H](O)[C@@H]1O)NC(=O)c1ccccc1C(=O)O` [Example 14, 2-(((2R)-1-(((((2R,3S,4R,5R)-5-(4-aminopyrrolo[2,1-f][1,2,4]triazin-7-yl)-5-cyano-3,4-dihydroxytetrahydrofuran-2-yl)methoxy)(hydroxy)phosphoryl)oxy)-3-(octadecyloxy)propan-2-yl)carbamoyl)benzoic acid]: the CC50 at 5 days in data set [1] is 26000 nM. Besides, the EC50 in the data set with SARS-CoV-2 was 0.7 µM; in data set [2] it was 53 nM.
For `CCCCCCCCCCCCCCCCCCOC[C@H](COP(=O)(O)OC[C@H]1O[C@@](C#N)(c2ccc3c(N)ncnn23)[C@H](O)[C@@H]1O)Oc1ccc(C#N)c(OC)c1F` [Example 48, ((2R,3S,4R,5R)-5-(4-aminopyrrolo[2,1-f][1,2,4]triazin-7-yl)-5-cyano-3,4-dihydroxytetrahydrofuran-2-yl)methyl ((R)-2-(4-cyano-2-fluoro-3-methoxyphenoxy)-3-(octadecyloxy)propyl) hydrogen phosphate], in data set [1], the CC50 at 5 days came out at 160 nM. The concentration for a half-maximal effect (EC50) in data set [2] came out at 17 nM.
In turn, `CCCCCCCCCCCCCCCCCCOC[C@H](COP(=O)(O)OC[C@H]1O[C@@](C#N)(c2ccc3c(N)ncnn23)[C@H](O)[C@@H]1O)Oc1cc(C)c(C#N)cc1F` [Example 49, ((2R,3S,4R,5R)-5-(4-aminopyrrolo[2,1-f][1,2,4]triazin-7-yl)-5-cyano-3,4-dihydroxytetrahydrofuran-2-yl)methyl ((R)-2-(4-cyano-2-fluoro-5-methylphenoxy)-3-(octadecyloxy)propyl) hydrogen phosphate] displayed a CC50 at 5 days in data set [1] of 1100 nM. In addition, in data set [2], the concentration for a half-maximal effect (EC50) came to 23 nM.
For `CCCCCCCCCCCCCCCCCCOC[C@H](COP(=O)(O)OC[C@H]1O[C@@](C#N)(c2ccc3c(N)ncnn23)[C@H](O)[C@@H]1O)OCc1cc(F)c(Cl)c(C#N)c1` [Example 50, ((2R,3S,4R,5R)-5-(4-aminopyrrolo[2,1-f][1,2,4]triazin-7-yl)-5-cyano-3,4-dihydroxytetrahydrofuran-2-yl)methyl ((R)-2-((4-chloro-3-cyano-5-fluorobenzyl)oxy)-3-(octadecyloxy)propyl) hydrogen phosphate] the same measures were 640 nM and 24 nM.
For `CCCCCCCCCCCCCCCCCCOC[C@H](COP(=O)(O)OC[C@H]1O[C@@](C#N)(c2ccc3c(N)ncnn23)[C@H](O)[C@@H]1O)OCc1cc(F)c(CCC)c(C#N)c1` [Example 51, ((2R,3S,4R,5R)-5-(4-aminopyrrolo[2,1-f][1,2,4]triazin-7-yl)-5-cyano-3,4-dihydroxytetrahydrofuran-2-yl)methyl ((R)-2-((3-cyano-5-fluoro-4-propylbenzyl)oxy)-3-(octadecyloxy)propyl) hydrogen phosphate] the same measures were 6700 nM and 100 nM.
Regarding `CCCCCCCCCCCCCCCCCCOC[C@H](COP(=O)(O)OC[C@H]1O[C@@](C#N)(c2ccc3c(N)ncnn23)[C@H](O)[C@@H]1O)Oc1cc(OC)c(C#N)cc1F` [Example 52, ((2R,3S,4R,5R)-5-(4-aminopyrrolo[2,1-f][1,2,4]triazin-7-yl)-5-cyano-3,4-dihydroxytetrahydrofuran-2-yl)methyl ((R)-2-(4-cyano-2-fluoro-5-methoxyphenoxy)-3-(octadecyloxy)propyl) hydrogen phosphate], in data set [1], the 50% cytotoxic concentration (CC50) at 5 days amounted to 370 nM. For the same compound, the concentration for a half-maximal effect (EC50) in data set [2] was found to be 17 nM.
Compound `CCCCCCCCCCCCCCCCCCOC[C@H](COP(=O)(O)OC[C@H]1O[C@@](C#N)(c2ccc3c(N)ncnn23)[C@H](O)[C@@H]1O)OCc1cc(F)c(C)c(C#N)c1` [Example 53, ((2R,3S,4R,5R)-5-(4-aminopyrrolo[2,1-f][1,2,4]triazin-7-yl)-5-cyano-3,4-dihydroxytetrahydrofuran-2-yl)methyl ((R)-2-((3-cyano-5-fluoro-4-methylbenzyl)oxy)-3-(octadecyloxy)propyl) hydrogen phosphate] registered a 50% cytotoxic concentration (CC50) at 5 days in data set [1] of 430 nM. In data set [2], the EC50 worked out at 25 nM.
For `CCCCCCCCCCCCCCCCCCOC[C@H](COP(=O)(O)OC[C@H]1O[C@@](C#N)(c2ccc3c(N)ncnn23)[C@H](O)[C@@H]1O)OCc1cc(C#N)c(Cl)c(OC)c1` [Example 54, ((2R,3S,4R,5R)-5-(4-aminopyrrolo[2,1-f][1,2,4]triazin-7-yl)-5-cyano-3,4-dihydroxytetrahydrofuran-2-yl)methyl ((R)-2-((4-chloro-3-cyano-5-methoxybenzyl)oxy)-3-(octadecyloxy)propyl) hydrogen phosphate] the same measures were 1300 nM and 64 nM.
For `CCCCCCCCCCCCCCCCCCN(C)C(=O)[C@H](COP(=O)(O)OC[C@H]1O[C@@](C#N)(c2ccc3c(N)ncnn23)[C@H](O)[C@@H]1O)OCc1cc(F)cc(C#N)c1` [Example 56, ((2R,3S,4R,5R)-5-(4-aminopyrrolo[2,1-f][1,2,4]triazin-7-yl)-5-cyano-3,4-dihydroxytetrahydrofuran-2-yl)methyl ((S)-2-((3-cyano-5-fluorobenzyl)oxy)-3-(methyl(octadecyl)amino)-3-oxopropyl) hydrogen phosphate] the same measures were 200 nM and 13 nM.

By CC50 is commonly meant the concentration that lowers cell viability or growth by half. A higher CC50 goes with better tolerance by the cells. As usually defined, the EC50 is the concentration that produces a half-maximal response.
